Patent publication US20250129086A1, “COMPOUND FOR DEGRADING EGFR PROTEIN AND USE THEREOF” (TYK MEDICINES, INC., priority 2021, published 2025)

What was measured:
[1] = tested on: PC-9 (EGFR exon 19 deletion); assay: Cell antiproliferative assay (CTG, 72 h), PC-9; assay type: cell-based, human; conditions: Homo sapiens, PC-9, 72 h
Procedure, shortened: (§1)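 Viability by CTG luminescence after 72 h compound exposure, normalised between blank medium and 0.1% DMSO controls, with IC50 from fitted curves. Dosing in triplicate, top 10,000 nM, 4-fold dilutions, applied about 24 h after plating 1500-2500 cells per well.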

[2] = tested on: H1975 (EGFR L858R/T790M double mutation); assay: Cell antiproliferative assay (CTG, 72 h), H1975; assay type: cell-based, human; conditions: Homo sapiens, NCI-H1975, 72 h
Procedure, shortened: as §1

[3] = tested on: HCC827 (exon 19 deletion mutation); assay: Cell antiproliferative assay (CTG, 72 h), HCC827; assay type: cell-based, human; conditions: Homo sapiens, HCC827, 72 h
Procedure, shortened: as §1

[4] = target: T1, EGFR (Homo sapiens, UniProt P00533, DEL746-750); assay: EGFR PROTAC In Cell Western assay in HCC827; assay type: cell-based; conditions: HCC827, EGFR degradation, 16 hours of incubation
T1 construct: host or cells: HCC827
Text: Test Example 2 EGFR PROTAC in Cell Western Assay
HCC827 cell culture medium was purchased from Corning. Cell line HCC827 was purchased from BeNa Culture Collection; EGF Receptor (D38B1) XP Rabbit mAb antibody and β-Actin (8H10D10) Mouse mAb antibody were from CST. IRDye 800CW, IRDye 680RD, and Intercept blocking solution (PBS) were purchased from Licor. Triton-100 was purchased from sigma, and 96-well black cell culture imaging microtiter plates were purchased from Agilent.
1) HCC827 cells were cell counted and cells were inoculated into 96-well black cell culture imaging microtiter plates at a density of 40,000 cells per well, with 100 μl per well. The plate was incubated overnight in a CO2 incubator.
2) Day 1: A gradient dilution of the compound to be tested was added to the cells of the culture plate (with a starting concentration of […], 9 concentrations, a dilution ratio of 1:3, 2 duplicate wells), with a final concentration of DMSO being 0.5%, and a blank control of DMSO without compound. The plate was placed in the cell culture incubator for a final 16 hours of incubation.
3) The culture medium was removed from the 96 wells with a pipette and the residual medium was washed with […] of PBS per well on a shaker for 5 min. After the removal of PBS, cells were quickly fixed by adding 150 μl of fresh fixation buffer (3.7% paraformaldehyde) and incubated for 20 min at room temperature.
4) The fixation buffer was removed and […] of Triton elution buffer (0.3% Triton-100) was added to wash for four times on a shaker for 5 minutes each time.
5)[…] LI-COR Odyssey blocking solution was added and the cells were incubated for 1.5 hours at room temperature with slow shaking on a shaker.
6) To block the samples, a primary antibody against EGFR and Actin were prepared using Antibody Dilution Buffer at a ratio of 1:300. The blocking solution was poured out and the diluted primary antibody was added (at a total volume of 50 μl/per well). The cell plate was covered and incubated at 4° C. overnight.
7) The cell plate was washed four times with PBS+Triton X-100 for 5 minutes each time.
8) Fluorescently labeled secondary antibodies IRDye® 680RD and IRDye® 800CW were diluted with Antibody Dilution Buffer (with a ratio of 1:600, at a total volume of 50 μl/well) and then incubated for one hour at room temperature, protected from light.
9) The cell plate was washed four times with PBS+Triton X-100 for 5 minutes each time.
After pipetting the PBS thoroughly, the plate was inverted and imaged on a Burroughs imager. A multiple exposure program was selected, IRDye 680RD Blot was chosen for the first channel, and IRDye 800CW Blot was chosen for the second channel. […] The blank group was the DMSO group, EGFR/Actin was calculated as the EGFR value of the corresponding sample wells, and the degradation rate=100-100*EGFR signal/DMSO signal. The DC50 and Dmax of the degraded EGFR proteins were calculated by fitting curves using the Prism software, 3-parameter method.

T1 sequence (P00533 with tags, fused parts or gaps DEL746-750): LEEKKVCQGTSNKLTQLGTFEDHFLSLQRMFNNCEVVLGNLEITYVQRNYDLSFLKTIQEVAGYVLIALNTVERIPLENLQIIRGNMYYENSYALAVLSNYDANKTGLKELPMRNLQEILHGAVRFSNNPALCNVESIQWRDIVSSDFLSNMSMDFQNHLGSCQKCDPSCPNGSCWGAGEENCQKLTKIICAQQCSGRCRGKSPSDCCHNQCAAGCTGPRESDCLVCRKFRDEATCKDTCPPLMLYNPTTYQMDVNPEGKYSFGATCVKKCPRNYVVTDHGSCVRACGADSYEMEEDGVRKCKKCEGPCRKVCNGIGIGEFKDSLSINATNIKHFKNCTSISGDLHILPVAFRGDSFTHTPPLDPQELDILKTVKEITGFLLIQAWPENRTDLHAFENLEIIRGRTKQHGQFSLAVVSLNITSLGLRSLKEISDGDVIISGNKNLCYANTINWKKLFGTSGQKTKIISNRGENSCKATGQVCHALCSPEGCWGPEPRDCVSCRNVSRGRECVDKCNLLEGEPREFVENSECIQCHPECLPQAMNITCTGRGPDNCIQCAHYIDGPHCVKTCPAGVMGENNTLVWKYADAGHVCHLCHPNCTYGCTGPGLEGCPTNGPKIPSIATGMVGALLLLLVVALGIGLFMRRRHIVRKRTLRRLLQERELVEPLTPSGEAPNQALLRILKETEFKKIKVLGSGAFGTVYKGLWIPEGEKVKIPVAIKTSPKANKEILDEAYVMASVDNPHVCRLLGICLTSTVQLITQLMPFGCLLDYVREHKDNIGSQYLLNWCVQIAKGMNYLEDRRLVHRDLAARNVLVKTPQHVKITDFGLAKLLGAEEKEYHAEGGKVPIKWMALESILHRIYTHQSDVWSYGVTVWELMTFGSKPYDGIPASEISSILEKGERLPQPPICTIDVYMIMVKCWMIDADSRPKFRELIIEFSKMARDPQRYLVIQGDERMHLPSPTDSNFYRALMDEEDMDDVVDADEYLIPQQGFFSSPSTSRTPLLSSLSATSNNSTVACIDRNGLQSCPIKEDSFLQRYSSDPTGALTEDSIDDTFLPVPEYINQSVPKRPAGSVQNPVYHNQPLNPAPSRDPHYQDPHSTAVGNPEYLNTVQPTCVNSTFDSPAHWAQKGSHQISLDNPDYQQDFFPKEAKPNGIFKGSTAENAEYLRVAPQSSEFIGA

Row | SMILES | IC50 ([1]; Table 2, PC-9 cells) [nM] | IC50 ([1]; Table 3, PC-9 cells) [nM] | IC50 ([2]; Table 2, H1975 cells) [nM] | IC50 ([2]; Table 3, H1975 cells) [nM] | IC50 ([3]; Table 2, HCC827 cells) [nM] | IC50 ([3]; Table 3, HCC827 cells) [nM] | Dmax ([4]; HCC827, Table 4) [%] | DC50 ([4]; Table 4) [µM] | Dmax ([4]; HCC827, Table 5) [%] | DC50 ([4]; Table 5) [µM]
1 | O=C1CCC(Nc2ccc(C3CCN(CC(=O)N4CCN(c5ccc(-c6cc(F)c7c(c6)C(=O)N(C(C(=O)Nc6nccs6)c6ncn8c6CCC8)C7)cc5)CC4)CC3)cc2)C(=O)N1 (stereo not drawn) [Comparative Compound 1, reference compound] | ≥ 1000 | > 5000 | 100 to 1000 | 548 | ≥ 1000 | > 5000 | < 50 | ≥ 1 | – | –
2 | COc1cc(N2CCC(N3CCN(C(=O)C4CCN(CC5CCN(c6ccc7c(c6)C(=O)N(C6CCC(=O)NC6=O)C7=O)CC5)CC4)CC3)CC2)ccc1Nc1ncc(Cl)c(Nc2ccccc2P(C)(C)=O)n1 (stereo not drawn) [Comparative Compound 2, reference compound] | ≥ 1000 | 1940 | 100 to 1000 | 186 | 100 to 1000 | 221 | 50 to 70 | 0.01 to 0.1 | 64.7 | 0.0223
3 | COc1cc(N2CCC(N3CCN(C(=O)CCCCN4CCN(c5ccc6c(c5)C(=O)N(C5CCC(=O)NC5=O)C6=O)CC4)CC3)CC2)ccc1Nc1ncc(Cl)c(Nc2ccccc2N(C)S(C)(=O)=O)n1 (stereo not drawn) [Comparative Compound 3, reference compound] | 100 to 1000 | 682 | 100 to 1000 | 386 | 10 to 100 | 72.5 | 50 to 70 | 0.01 to 0.1 | 56.4 | 0.0152
4 | COc1cc(N2CCN(C(=O)CN3CCC(c4ccc(NC5CCC(=O)NC5=O)cc4)CC3)CC2)ccc1Nc1ncc(Cl)c(Nc2ccccc2C(C)=O)n1 (stereo not drawn) [Compound T-12] | 100 to 1000 | 324 | 10 to 100 | 34.3 | 100 to 1000 | 110 | 70 to 100 | 0.01 to 0.1 | 70.5 | 0.0156
5 | COc1cc(C(=O)N2CCC(c3ccc(NC4CCC(=O)NC4=O)cc3)CC2)ccc1Nc1ncc(Cl)c(Nc2ccccc2C(C)=O)n1 (stereo not drawn) [Compound T-130] | – | – | – | – | – | – | < 50 | 0.1 to 1 | – | –
6 | COc1cc(N2CCN(C(=O)CN3CCC(c4ccc(NC5CCC(=O)NC5=O)cc4)CC3)CC2)ccc1Nc1ncc(C(F)(F)F)c(Nc2ccc(F)cc2F)n1 (stereo not drawn) [Compound T-131] | – | – | – | – | – | – | < 50 | 0.01 to 0.1 | – | –
7 | COc1cc(N2CCC(N(C)C(=O)C3CCN(CC4CCN(c5ccc6c(c5)C(=O)N(C5CCC(=O)NC5=O)C6=O)CC4)CC3)CC2)ccc1Nc1ncc(Cl)c(Nc2ccccc2C(C)=O)n1 (stereo not drawn) [Compound T-228] | – | – | 10 to 100 | – | – | – | < 50 | 0.1 to 1 | – | –
8 | COc1cc(N2CCN(C(=O)CN3CCC(c4ccc(NC5CCC(=O)NC5=O)cc4)CC3)CC2)c(C)cc1Nc1ncc(Cl)c(Nc2ccccc2P(C)(C)=O)n1 (stereo not drawn) [Compound T-327] | 100 to 1000 | – | 10 to 100 | – | 100 to 1000 | – | – | – | – | –
9 | O=C1CCC(Nc2ccc(C3CCN(CC(=O)N4CCN(c5ccc(Nc6ncc(Cl)c(Nc7ccccc7)n6)c(Cl)c5)CC4)CC3)cc2)C(=O)N1 (stereo not drawn) [Compound T-328] | 100 to 1000 | – | 100 to 1000 | – | 100 to 1000 | – | – | – | – | –
10 | CP(C)(=O)c1ccccc1Nc1nc(Nc2ccc(N3CCN(C(=O)CN4CCC(c5ccc(NC6CCC(=O)NC6=O)cc5)CC4)CC3)cc2Cl)ncc1Cl (stereo not drawn) [Compound T-330] | 100 to 1000 | – | 100 to 1000 | – | 100 to 1000 | – | – | – | – | –
11 | COc1cc(C2CCN(C(=O)CN3CCC(c4ccc(NC5CCC(=O)NC5=O)cc4)CC3)CC2)ccc1Nc1ncc(Cl)c(Nc2ccccc2P(C)(C)=O)n1 (stereo not drawn) [Compound T-331] | 100 to 1000 | – | 100 to 1000 | – | ≥ 1000 | – | – | – | – | –
12 | COc1cc(N2CCN(C(=O)CN3CCC(c4ccc(Cn5ccc(=O)[nH]c5=O)cc4)CC3)CC2)ccc1Nc1ncc(Cl)c(Nc2ccccc2C(C)=O)n1 [Compound T-332] | 100 to 1000 | – | 100 to 1000 | – | 100 to 1000 | – | – | – | – | –
13 | COc1cc(N2CCN(C(=O)CN3CCC(c4ccc(CN5CCC(=O)NC5=O)cc4)CC3)CC2)ccc1Nc1ncc(Cl)c(Nc2ccccc2C(C)=O)n1 [Compound T-337] | 100 to 1000 | – | 100 to 1000 | – | 100 to 1000 | – | – | – | – | –
14 | COc1cc(N2CCN(CC(=O)N3CCC(c4ccc(NC5CCC(=O)NC5=O)cc4)CC3)CC2)ccc1Nc1ncc(Cl)c(Nc2ccccc2C(C)=O)n1 (stereo not drawn) [Compound T-338] | 100 to 1000 | – | 100 to 1000 | – | 100 to 1000 | – | – | – | – | –
15 | C=CC(=O)Nc1cc(Nc2ncc(C(F)(F)F)c(Nc3ccccc3)n2)c(OC)cc1N1CCN(C(=O)CN2CCC(c3ccc(NC4CCC(=O)NC4=O)cc3)CC2)CC1 (stereo not drawn) [Compound T-339] | 100 to 1000 | – | 100 to 1000 | – | 100 to 1000 | – | – | – | – | –
16 | COc1cc(N2CCN(C(=O)CN3CCC(c4ccc(NC5CCC(=O)NC5=O)cc4)CC3)CC2)ccc1Nc1ncc(Cl)c(Nc2ccccc2C(=O)NC2CCCC2)n1 (stereo not drawn) [Compound T-341] | ≥ 1000 | – | 10 to 100 | – | 100 to 1000 | – | – | – | – | –
17 | COc1cc(N2CCN(C(=O)CN3CCC(c4ccc(NC5CCC(=O)NC5=O)cc4)CC3)CC2)ccc1Nc1ncc(Br)c(Nc2ccccc2C(=O)NC2CCCC2)n1 (stereo not drawn) [Compound T-342] | 100 to 1000 | – | 10 to 100 | – | 10 to 100 | – | – | – | – | –
18 | COc1cc(N2CCN(C(=O)CN3CCC(c4ccc(NC5CCC(=O)NC5=O)cc4)CC3)CC2)ccc1Nc1ncc(C(F)(F)F)c(Nc2ccccc2C(=O)NC2CCCC2)n1 (stereo not drawn) [Compound T-343] | 10 to 100 | – | 10 to 100 | – | 10 to 100 | – | – | – | – | –
19 | COc1cc(N2CCC(N(C)C(=O)CN3CCC(c4ccc(NC5CCC(=O)NC5=O)cc4)CC3)CC2)ccc1Nc1ncc(Cl)c(Nc2ccccc2C(C)=O)n1 (stereo not drawn) [Compound T-353] | 100 to 1000 | – | 10 to 100 | – | 100 to 1000 | – | – | – | – | –
20 | CNC(=O)c1ccccc1Nc1nc(Nc2cc(C)c(N3CCN(C(=O)CN4CCC(c5ccc(NC6CCC(=O)NC6=O)cc5)CC4)C(C)C3)cc2OC)ncc1Cl (stereo not drawn) [Compound T-355] | 10 to 100 | – | 10 to 100 | – | 10 to 100 | – | – | – | – | –
21 | CNC(=O)c1ccccc1Nc1nc(Nc2cc(C)c(N3CCN(C(=O)CN4CCC(c5ccc(NC6CCC(=O)NC6=O)cc5)CC4)C(C)C3)cc2OC)ncc1Br (stereo not drawn) [Compound T-356] | 10 to 100 | – | 10 to 100 | – | 10 to 100 | – | – | – | – | –
22 | CNC(=O)c1ccccc1Nc1nc(Nc2cc(C)c(N3CCN(C(=O)CN4CCC(c5ccc(NC6CCC(=O)NC6=O)cc5)CC4)C(C)C3)cc2OC)ncc1C(F)(F)F (stereo not drawn) [Compound T-357] | 10 to 100 | – | 10 to 100 | – | 10 to 100 | – | – | – | – | –
23 | CNC(=O)c1ccccc1Nc1nc(Nc2cc(C)c(N3CCN(C(=O)CN4CCC(c5ccc(NC6CCC(=O)NC6=O)cc5)CC4)CC3C)cc2OC)ncc1Br (stereo not drawn) [Compound T-359] | 10 to 100 | – | 10 to 100 | – | 10 to 100 | – | – | – | – | –
24 | CNC(=O)c1ccccc1Nc1nc(Nc2cc(C)c(N3CCN(C(=O)CN4CCC(c5ccc(NC6CCC(=O)NC6=O)cc5F)CC4)CC3)cc2OC)ncc1Cl (stereo not drawn) [Compound T-367] | 10 to 100 | – | 10 to 100 | – | 10 to 100 | – | – | – | – | –
25 | CNC(=O)c1ccccc1Nc1nc(Nc2cc(C)c(N3CCN(C(=O)CN4CCC(c5ccc(NC6CCC(=O)NC6=O)cc5F)CC4)CC3)cc2OC)ncc1Br (stereo not drawn) [Compound T-368] | 10 to 100 | – | 10 to 100 | – | 10 to 100 | – | – | – | – | –
26 | CNC(=O)c1ccccc1Nc1nc(Nc2cc(C)c(N3CCN(C(=O)CN4CCC(c5ccc(NC6CCC(=O)NC6=O)cc5F)CC4)CC3)cc2OC)ncc1C(F)(F)F (stereo not drawn) [Compound T-369] | 10 to 100 | – | 10 to 100 | – | 10 to 100 | – | – | – | – | –
